Assays:
[1] = system: type II collagen-immunized mice (collagen-induced arthritis); test: Experiment 1: collagen-induced arthritis (CIA) in mice, clinical assessment; assay type: in vivo; conditions: prednisolone 5 mg/kg i.p. daily
Procedure: Tests are conducted under a model of rheumatoid arthritis in mice (collagen-induced arthritis or CIA) that shares some similarities with the human disease. The tests evaluate the effect of plant extracts and Oxepa®, on the severity of CIA and concentration of inflammatory mediators.
Seven week-old DBA/1J (H-2^q) male mice (n=105) are purchased from Harlan (Barcelona, Spain) and housed in plastic cages (5 animals each) with free access to food and water.
The procedure followed for the animal immunization is carried out by injecting 100 μl of bovine collagen II emulsion (type II collagen in complete Freund's adjuvant) intradermically in the base of the tail. Collagen is supplied by Chondrex (MDbiosciences, Switzerland) and the emulsion is prepared as follows: collagen is dissolved in 0.05M acetic acid (2 mg/ml) overnight at 4° C. with constant, but gentle stirring and emulsified with Freund's adjuvant (1:1). The Freund's adjuvant is added drop by drop while mixing in a high-speed homogenisator (ultraturrax) at 27,000 rpm. […]
Mice are assessed daily for clinical symptoms of inflammation, and their weights are measured. […]
For the statistical analysis, outliers are removed if they differed from the mean more than three standard deviations. Homogeneity of variances is analysed by Levene's test. […] The classification of arthritic index into categories is analysed by Chi-squared.

MMP-9 = test: Experiment 1: MMP-9 ELISA in joint homogenates; assay type: in vivo, mice
Procedure: (§1) The following parameters are measured in joint homogenates: antibodies against type II collagen (IgG2a); proinflammatory cytokines: IL-1β and IL-6; counter-regulatory cytokines: IL-10; and Matrix metalloproteinases: MMP-9. Antibodies against type II collagen (IgG2a) are also measured in serum. Cytokines and MMP-9 in homogenized joints are measured by ELISA using commercial kits from BIOTRAK (Amersham Pharmacia Biotech) following the supplier instructions and using joint homogenates without any further dilution.

IL-1β = test: Experiment 1: IL-1β ELISA in joint homogenates; assay type: in vivo, mice
Procedure: (§2) The following parameters are measured in joint homogenates: antibodies against type II collagen (IgG2a); proinflammatory cytokines: IL-1β and IL-6; counter-regulatory cytokines: IL-10; and Matrix metalloproteinases: MMP-9. Antibodies against type II collagen (IgG2a) are also measured in serum.
Cytokines and MMP-9 in homogenized joints are measured by ELISA using commercial kits from BIOTRAK (Amersham Pharmacia Biotech) following the supplier instructions and using joint homogenates without any further dilution.

[2] = system: antibodies against type II collagen (IgG2a); test: Experiment 1: anti-CII IgG2a ELISA in serum and joint homogenates; assay type: in vivo, mice
Procedure: Blood samples are taken from the retroorbital sinus under light anesthesia and the animals are immediately sacrificed by cervical dislocation. Fore and hind limbs are dissected and frozen at −80° C. Blood samples are allowed to cloth for 1 hour at room temperature and the serum is separated from blood cells by centrifugation at 6,500 g for 10 min.
as §2
Specific anti-CII—IgG2a in joints and serum of mice is determined by ELISA. Briefly, 96-well microtiter plates are coated overnight with CII at 4° C., washed with 0.05% Tween-PBS, blocked with 1% bovine serum albumin-PBS for 2 h at room temperature and then washed again. Samples are diluted with PBS before assay: 1:16000 for serum and 1:50 for homogenized joints. Fifty (50) μL of standards (type II collagen Ab-2, clone 2B1.5, NeoMarkers) from 0 to 500 ng/ml and samples are added to each well in duplicate, and incubated 2 h at 37° C. […] Finally the absorbance is measured in a microplate reader at 405 nm.

IL-6 = test: Experiment 1: IL-6 ELISA in joint homogenates; assay type: in vivo, mice
Procedure: as §1

[3] = system: histological structure of cartilage and bone of arthritic joints; test: Experiment 3: histological scoring of joints of CIA mice (H&E); assay type: in vivo
From the text: Experiment 1 is repeated and the test animals evaluated for various histological changes associated with each control or treatment group. The purpose of this experiment is to show the effect of Boswellia serrata and Phlebodium decumanum extracts and Oxepa® on the histological structure of cartilage and bone in the same experimental model as described above. After again completing the above-described model, the mice are sacrificed 10 days after the arthritis onset by cervical dislocation under light anesthesia. Fore and hind limbs are dissected and the skin removed. Each is then immersed in 4% buffered formaldehyde for 2-3 days. Afterwards, each is treated with decalcificant solution for 2 hours and treated again for 60-90 minutes more. The samples are dehydrated with alcohol solutions of increasing concentrations, embedded in paraffin, cut into 4 μm slices and stain with hematoxilin and eosin (H&E). The following joints are thereafter studied: elbow, radio-cubito-carpo (wrist), carpo-metacarpo and metacarpo-phalange in fore limbs, and knee, tibio-tarso (ankle), tarso-metatarso, metatarso-phalange in hind limbs. Typical alterations of arthritic joints are considered, such as synovial inflammation, pannus formation, cartilage damage and bone destruction, and are scored on a nominal scale from 0 to 3. The scale is defined for each parameter as follows: Synovial inflammation: 0=Absence: normal synovial-periarticular tissue; 1=mild: infiltration of inflammatory cells in the periarticular tissue; 2=moderated: cell infiltration and moderated edema; 3=severe: marked cell infiltration and edema. Pannus formation: None (0), mild (1), moderate (2) or severe (3) proliferation of synovial tissue at the synovium-cartilage junction. Cartilage damage: 0=Absence: normal cartilage; 1=mild: damage of Zone I (external) with slight loss of chondrocytes and/or collagen disruption; 2=moderated: damage of Zone II (internal) with moderate loss of chondrocytes and/or collagen disruption: 3=severe: severe damage of all Zones with multifocal losses of chondrocytes and/or collagen disruption. Subchondral bone destruction: 0=Absence: normal bone; 1=mild: some areas of cortical degradation, few osteoclasts; 2=moderated: clear bone degradation with moderate medular damage, more osteoclasts; 3=severe: intense cortical and medular bone destruction, numerous osteoclasts. The scores of all joints are summed to obtain a general score for each histological parameter and animal. The histopathologist is not aware of the study groups during the evaluation of the samples. Homogeneity of variances are tested by the Bartelett's test. If homogeneity of variances is met, data are analysed by one-way ANOVA. If variances are not homogeneous, non-parametric procedures are used. The analysis is done by the Graph Pad Prism Software version 4.

[4] = system: type II collagen-immunized mice (collagen-induced arthritis); test: Experiment 3: CIA in mice, arthritis index, onset and incidence; assay type: in vivo; conditions: prednisolone i.p. daily
[5] = individual mice, sum of scores (0-3) of all joints

Compound: C[C@]12C=CC(=O)C=C1CC[C@@H]1[C@@H]2[C@@H](O)C[C@@]2(C)[C@H]1CC[C@]2(O)C(=O)CO [prednisolone]
- development of arthritis [1]: do not develop arthritis
- content of MMP-9 in joint homogenates versus control (MMP-9): lower
- content of IL-1β in joint homogenates versus control (IL-1β): lower
- IgG2a levels in joint homogenates versus control ([2]; joint homogenates): significantly lower
- IgG2a levels in serum versus control ([2]; serum): significantly lower
- content of IL-6 in joint homogenates versus control (IL-6): lower
- Bone score [3, 5]: 0
- Cartilage score [3, 5]: 0
- Inflammation score [3, 5]: 0
- Pannus score [3, 5]: 0
- joint appearance, histological slide ([3]; knee, left hind limb, H&E, FIG. 9): normal joint
- development of arthritis [4]: do not develop arthritis

From patent US20060246115A1, “Nutritional products for ameliorating symptoms of rheumatoid arthritis” (priority 2005, published 2006)
